Source: patent US20060171969A1, “Oral pharmaceutical forms of liquid drugs having improved bioavailability” (priority 2002, published 2006)

Experiment: In man pharmacokinetics of oral NO-diclofenac sachets (plasma, LC/MS/MS)
Assay type: in vivo
Details: 75, 100 and 150 mg sachets of example 2, oral; 0.25-32 h
Method: In man evaluation of pharmacokinetic and pharmacodynamic parameters of the oral NO-diclofenac formulation described in example 2 (sachets).
Six healthy fastened patients were administered with 75, 100 and 150 mg NO-Diclofenac sachets formulated as described in example 2.
In order to evaluate the pharmacokinetic parameters, blood samples were taken at 0.25, 0.5, 1, 2, 3, 4, 5, 6, 8, 10, 12, 16, 24 and 32 hours after administration of the pharmaceutical formulation. The active ingredient NO-diclofenac and its metabolites diclofenac and the hydroxyderivative 4-OH-diclofenac were dosed in plasma by a LC/MS/MS method, previously validated. NO-diclofenac was not found in the samples at any dosage. The pharmacokinetic parameters of plasma levels obtained for diclofenac (D) and the 4-hydroxydiclofenac (40H-Diclofenac, 40H-D) are reported in Table 2.

## O=C(Cc1ccccc1Nc1c(Cl)cccc1Cl)OCCCCO[N+](=O)[O-] [NO-diclofenac, 2-[(2,6-dichlorophenyl)amino]benzeneacetic acid 4-(nitrooxy)butyl ester]
  NO-diclofenac (unchanged) in plasma samples: not found
